Columns and labels:
histamine H1 receptor = biological target: T1, histamine H1 receptor (Rattus norvegicus, UniProt P31390); test: H1-Receptor Binding Assay (rat brain membranes, [3H]pyrilamine); conditions: male Sprague-Dawley rat brain membranes, Ki by Cheng-Prusoff, HCl salt of the indicated compound, read-out: H1 Ave Ki
T1 construct: The tissue source was male Sprague-Dawley rat brain; tissue Rockland Corporation, Gilbertsville, Pa; host or cells: male Sprague-Dawley rat brain membranes
Text: General Procedure for H1.—Receptor Binding Assay: The procedure used was based on that disclosed in V. T. Tran et al, “Histamine H1 receptors identified in mammalian brain membranes with [H-3]mepyramine”, Proc. Natl. Acad. Sci. U.S.A. 75 (1978) 6290-6294.
I. Tissue preparation protocol for histamine H1 receptor binding assay:
1. The tissue source was male Sprague-Dawley rat brain. These were purchased stripped and frozen (available from Rockland Corporation, Gilbertsville, Pa.). The buffer used was ice-cold 50 mM Tris-HCl, pH 7.5. (The pH was determined at 25° C.)
2. The brains were spread out on plastic wrap on the benchtop and allowed to thaw for 10-15 min. After this, everything was kept ice-cold.
3. Two brains were put in each 50 ml round bottom centrifuge tube and 25 ml of buffer was added. Then they were broken up with a Polytron (from Brinkmann Instruments, Westbury, N.Y.) equipped with a PT-10 tip at setting 6 for 30 sec.
4. The volume in the tube was brought up to 45 ml and mixed and the particulate material was centrifuged at 1000×g (3000 rpm, SS-34 rotor) for 10 min to remove nuclei and unbroken cells.
5. Pellets were discarded and the supernatants were centrifuged 10 min at 50,000×g (20,000 rpm, SS-34 rotor).
6. The high-speed pellets were resuspended in a volume of Tris buffer equal to the original (4 ml), the contents of all tubes were pooled, and a sample was taken for BCA protein assay . The material was aliquotted, 45 ml per round-bottom tube, and the resuspension was recentrifuged. The yield of protein was approximately 20 mg/brain, so there was about 40 mg of protein per tube.
7 . Pellets were frozen at −80° C.
II. H1 Histamine receptor binding assay:
1. FDCL and comparative compounds for assay were independently solubilized at 1 mg/ml DMSO by vortexing, or if necessary by sonication. The first dilution, 100-fold, was made in 50 mM Tris-HCl, pH 7.5, at room temperature. The three or four subsequent ten-fold serial dilutions were made in 1% DMSO/50 mM Tris-HCl, pH 7.5. Drug solutions and assay plates were kept at room temperature during the course of the assay set up.
2. Test compounds were assayed at four or five concentrations: 1, 0.1, 0.01, 0.001, and 0.0001 μg/ml. Twenty μl of drug solution was pipeted into each of three wells.
3. [^3H]Pyrilamine was diluted approximately 2000-fold with ice-cold […] Tris-HCl, pH 7.5 (to a working concentration of 20-25 nM), and put on ice.
4. A frozen tissue pellet was thawed in a 25° C. water bath, resuspended in 50 mM Tris-HCl, pH 7.5, at 1.7-2 mg/ml by brief break-up on the Polytron, and put on ice.
5. Twenty μl of diluted [^3H]pyrilamine was added to each well.
6. One hundred fifty μl of tissue suspension was added to each well.
7. The top of the plate was covered and it was placed in a 25° C. shaking water bath (about 60 oscillations/min) for 30 min..
8. Samples were filtered on a Tomtec Mach 2 harvester (available from Tomtec Corporation, Orange, Conn.) through a GF/B filter mat (from Wallac, Inc., Gaithersburg, Md.) presoaked in 0.3% polyethylenimine. Each sample was thrice washed with ice-cold 50 mM Tris-HCl, pH 7.5 dried 20 sec on the Tomtec, and dried 3-4 min in a microwave oven on a paper towel. The filter was impregnated with MELTILEX brand wax scintillant (from Wallac Corporation) and counted on a Betaplate scintillation counter (from Wallac Corporation).
9. Specific binding was determined as the difference between total and nonspecific binding. […]

H3 receptors = biological target: T2, H3 receptors (Cavia porcellus, UniProt Q9JI35); test: H3-Receptor Binding Assay (guinea pig brain membranes, [3H]R-α-methyl histamine or [3H]Nα-methyl histamine); conditions: HCl salt of the indicated compound, read-out: H3 Ave Ki
T2 construct: The source of the H3 receptors in this experiment was guinea pig brain; from tissue; host or cells: guinea pig brain membranes
Method: General Procedure for H3—Receptor Binding Assay
The source of the H3 receptors in this experiment was guinea pig brain. The animals weighed 400-600 g. The brain tissue was homogenized with a solution of 50 mM Tris, pH 7.5. The final concentration of tissue in the homogenization buffer was 10% w/v. The homogenates were centrifuged at 1,000×g for 10 min. in order to remove clumps of tissue and debris. The resulting supernatants were then centrifuged at 50,000×g for 20 min. in order to sediment the membranes, which were next washed three times in homogenization buffer (50,000×g for 20 min. each). The membranes were frozen and stored at −70° C. until needed.
All compounds to be tested were dissolved in DMSO and then diluted into the binding buffer (50 mM Tris, pH 7.5) such that the final concentration was 2 μg/ml with 0.1% DMSO. Membranes were then added (400 μg of protein) to the reaction tubes. The reaction was started by the addition of 3 nM [^3H]R-α-methyl histamine (8.8 Ci/mmol) or 3 nM [^3H]N^α-methyl histamine (80 Ci/mmol) and continued under incubation at 30° C. for 30 min. Bound ligand was separated from unbound ligand by filtration, and the amount of radioactive ligand bound to the membranes was quantitated by liquid scintillation spectrometry. All incubations were performed in duplicate and the standard error was always less than 10%. Compounds that inhibited more than 70% of the specific binding of radioactive ligand to the receptor were serially diluted to determine a Ki (nM). The results are given in the Table 1 for the HCl salt of the indicated compound.

T1 sequence (P31390 whole entry): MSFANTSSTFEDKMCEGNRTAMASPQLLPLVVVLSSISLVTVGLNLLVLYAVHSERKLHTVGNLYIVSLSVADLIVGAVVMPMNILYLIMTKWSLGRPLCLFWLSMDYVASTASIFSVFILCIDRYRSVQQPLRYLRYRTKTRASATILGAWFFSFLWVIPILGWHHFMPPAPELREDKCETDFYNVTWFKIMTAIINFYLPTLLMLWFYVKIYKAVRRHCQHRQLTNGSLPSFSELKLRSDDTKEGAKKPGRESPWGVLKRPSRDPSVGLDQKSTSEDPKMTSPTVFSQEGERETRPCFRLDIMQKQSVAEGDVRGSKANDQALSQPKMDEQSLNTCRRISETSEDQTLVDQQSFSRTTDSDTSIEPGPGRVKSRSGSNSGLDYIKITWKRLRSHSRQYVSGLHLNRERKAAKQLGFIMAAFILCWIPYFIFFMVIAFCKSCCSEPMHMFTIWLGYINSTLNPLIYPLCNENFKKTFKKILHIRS
T2 sequence (Q9JI35 whole entry): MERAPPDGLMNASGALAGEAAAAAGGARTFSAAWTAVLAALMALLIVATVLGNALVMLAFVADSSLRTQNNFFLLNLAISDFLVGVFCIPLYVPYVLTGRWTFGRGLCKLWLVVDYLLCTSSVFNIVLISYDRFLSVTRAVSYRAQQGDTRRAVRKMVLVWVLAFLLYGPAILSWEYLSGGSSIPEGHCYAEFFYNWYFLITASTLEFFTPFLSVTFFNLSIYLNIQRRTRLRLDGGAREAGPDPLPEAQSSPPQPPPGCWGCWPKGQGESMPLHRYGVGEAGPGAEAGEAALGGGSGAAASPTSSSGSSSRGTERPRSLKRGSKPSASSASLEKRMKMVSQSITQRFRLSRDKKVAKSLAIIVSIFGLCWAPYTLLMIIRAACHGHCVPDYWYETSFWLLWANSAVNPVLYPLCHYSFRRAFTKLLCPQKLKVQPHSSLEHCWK

Row | Structure (SMILES) | Ki (histamine H1 receptor) [nM] | Ki (H3 receptors) [nM]
1 | Clc1ccc2c(c1)CCc1cccnc1C2NCCc1c[nH]cn1 (centres unmarked) | 144 | 70
2 | Clc1ccc2c(c1)CCc1cccnc1C2CCN(CCCc1c[nH]cn1)CCCc1c[nH]cn1 (centres unmarked) | 571 | 25
3 | Clc1ccc2c(c1)CCc1cccnc1C2CCNCCCc1c[nH]cn1 (centres unmarked) | 40 | 37
4 | Clc1ccc2c(c1)CCc1cccnc1C2CCN(CCCCCc1c[nH]cn1)CCCCCc1cnc[nH]1 (centres unmarked) |  | 26
5 | Clc1ccc2c(c1)CCc1cccnc1C2CCN(CCCCc1c[nH]cn1)CCCCc1c[nH]cn1 (centres unmarked) |  | 9
6 | Clc1ccc2c(c1)CCc1cccnc1C2NCCCCc1c[nH]cn1 (centres unmarked) | 41 | 29

Compounds with a lower Ki (H3 receptors), results first:

Row | Ki (histamine H1 receptor) [nM] | Ki (H3 receptors) [nM] | Structure (SMILES)
7 | 502 | 7.5 | Clc1ccc2c(c1)CCc1cccnc1C2NCCCCCc1c[nH]cn1 (centres unmarked)
8 |  | 7.5 | Clc1ccc2c(c1)CCc1cccnc1C2CCNCCCCc1c[nH]cn1 (centres unmarked)
9 |  | 7 | Clc1ccc2c(c1)CCc1cccnc1C2CCNCCCCCc1c[nH]cn1 (centres unmarked)

From patent publication US6528522B2, “Substituted imidazoles as dual histamine H1 and H3 agonists or antagonists” (Schering Corporation, priority 2000, dated 2003)
